Experiments:
Assay in all cases: relative viability (nuclei count vs DMSO), 5 days (fraction); higher = more cells survive
DM3189 + AZD7762 = compound: C1CN(CCN1)C2=CC=C(C=C2)C3=CN4C(=C(C=N4)C5=CC=NC6=CC=CC=C56)N=C3 [DM3189] + NC(=O)Nc1cc(-c2cccc(F)c2)sc1C(=O)N[C@H]1CCCNC1 [AZD7762] (partner 0.2 µM)
Summary of the method: (§1)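 Lung cancer cell lines, seeded in 1536-well plates, were treated the following day by pin tool with a single drug or with five library-drug doses (not always all listed) in √10 steps on top of a fixed anchor-drug dose. Cells were fixed and nuclei stained in one step after 5 days, and nuclei were counted. Relative viability is the nuclei count for treated wells divided by that for vehicle wells, reported as medians of duplicate plates.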

DM3189 + Linsitinib = compound: C1CN(CCN1)C2=CC=C(C=C2)C3=CN4C(=C(C=N4)C5=CC=NC6=CC=CC=C56)N=C3 [DM3189] + C[C@]1(O)C[C@@H](c2nc(-c3ccc4ccc(-c5ccccc5)nc4c3)c3c(N)nccn32)C1 [Linsitinib] (partner 1 µM)
Summary of the method: as §1

DM3189 + Palbociclib = compound: C1CN(CCN1)C2=CC=C(C=C2)C3=CN4C(=C(C=N4)C5=CC=NC6=CC=CC=C56)N=C3 [DM3189] + CC(=O)c1c(C)c2cnc(Nc3ccc(N4CCNCC4)cn3)nc2n(C2CCCC2)c1=O [Palbociclib] (partner 0.5 µM)
Summary of the method: as §1

DM3189 + Olaparib = compound: C1CN(CCN1)C2=CC=C(C=C2)C3=CN4C(=C(C=N4)C5=CC=NC6=CC=CC=C56)N=C3 [DM3189] + O=C(c1cc(Cc2n[nH]c(=O)c3ccccc23)ccc1F)N1CCN(C(=O)C2CC2)CC1 [Olaparib] (partner 8 µM)
Summary of the method: as §1

DM3189 + Luminespib = compound: C1CN(CCN1)C2=CC=C(C=C2)C3=CN4C(=C(C=N4)C5=CC=NC6=CC=CC=C56)N=C3 [DM3189] + CCNC(=O)c1noc(-c2cc(C(C)C)c(O)cc2O)c1-c1ccc(CN2CCOCC2)cc1 [Luminespib] (partner 0.01 µM)
Summary of the method: as §1

Cell Line	relative viability (DM3189 + AZD7762; first compound 0.08 µM)	relative viability (DM3189 + AZD7762; first compound 0.253 µM)	relative viability (DM3189 + AZD7762; first compound 0.8 µM)	relative viability (DM3189 + AZD7762; first compound 2.53 µM)	relative viability (DM3189 + Linsitinib; first compound 0.08 µM)	relative viability (DM3189 + Linsitinib; first compound 0.253 µM)	relative viability (DM3189 + Linsitinib; first compound 0.8 µM)	relative viability (DM3189 + Linsitinib; first compound 2.53 µM)	relative viability (DM3189 + Palbociclib; first compound 0.08 µM)	relative viability (DM3189 + Palbociclib; first compound 0.253 µM)	relative viability (DM3189 + Palbociclib; first compound 0.8 µM)	relative viability (DM3189 + Palbociclib; first compound 2.53 µM)	relative viability (DM3189 + Olaparib; first compound 0.08 µM)	relative viability (DM3189 + Olaparib; first compound 0.253 µM)	relative viability (DM3189 + Olaparib; first compound 0.8 µM)	relative viability (DM3189 + Olaparib; first compound 2.53 µM)	relative viability (DM3189 + Luminespib; first compound 0.08 µM)	relative viability (DM3189 + Luminespib; first compound 0.253 µM)	relative viability (DM3189 + Luminespib; first compound 0.8 µM)	relative viability (DM3189 + Luminespib; first compound 2.53 µM)
201T	0.717	0.639	0.611	0.537	1.07	1.03	1.01	1.08	0.419	0.364	0.342	0.366	0.822	0.882	0.859	0.765	1.16	1.01	1.14	0.941
A-427	0.684	0.701	0.677	0.723	1.1	1.03	1.11	1.33	0.593	0.492	0.474	0.524	0.832	0.753	0.512	0.807	1.13	0.89	0.806	0.745
ABC-1	0.914	0.679	0.742	1.06	0.806	0.894	0.752	0.783	0.713	0.642	0.498	0.553	1.04	0.594	0.676	0.718	0.516	0.489	0.531	0.278
BEN	0.76	0.646	0.702	0.738	0.935	0.828	0.957	0.778	0.497	0.484	0.441	0.545	1.13	1.12	0.852	1.08	0.387	0.555	0.516	0.382
CAL-12T	0.533	0.629	0.585	0.684	0.714	0.823	0.925	0.884	0.713	0.335	0.451	0.352	0.713	0.618	0.681	0.803	0.375	0.499	0.454	0.217
COR-L23					0.94	1.01	0.559	0.742	0.292	0.242	0.201	0.192	0.439	0.264	0.245	0.303	1.12	0.658	0.562	0.521
COR-L 105					0.905	1.08	0.804	1.25	0.408	0.441	0.353	0.489	0.855	0.772	0.545	0.812	0.812	0.83	0.705	0.778
ChaGo-K-1	0.919	0.857	0.605	0.83					0.947	0.908	0.914	0.964	0.48	0.393	0.369	0.439	0.643	0.52	0.492	0.676
EKVX	0.809		0.623	0.638	0.896	1	0.717	0.993	0.402		0.291	0.393	1.06		0.517	0.814	0.96	0.874	0.908	0.962
EMC-BAC-2	1.26	1.03	0.976	1.05	0.848	0.8	0.82	0.827	0.515	0.494	0.484	0.525	0.5	0.455	0.339	0.492	1.24	1.07	1.06	1.25
EPLC-272H	0.174	0.219	0.276	0.186	1.24	1.3	1.16	1.29	0.321	0.318	0.343	0.341	0.669	0.714	0.735	0.565	0.738	0.317	0.25	0.281
H3255	1.14	0.883	0.88	0.943	0.951	0.982	0.846	0.994	0.37	0.313	0.308	0.329	0.576	0.573	0.547	0.627	1.09	0.957	0.799	0.951
HARA	0.263	0.364	0.161	0.302	1.2	0.853	0.997	1.31	0.288	0.194	0.225	0.263	1.23	0.733	0.579	0.654	0.865	0.784	0.55	1.15
HCC-78	0.644	0.546	0.497	0.531	0.515	0.465		0.474	0.479	0.395	0.423	0.586	0.763	0.659	0.586	0.944				
HCC-366	0.293	0.267	0.197	0.241	0.641	0.538	0.55	0.649	0.408	0.286	0.244	0.341	0.312	0.325	0.311	0.416				
IA-LM					0.699	0.682	0.51	0.901					0.999	1.02	0.821	1.2				

Cell Line	relative viability (DM3189 + AZD7762; first compound 0.08 µM)	relative viability (DM3189 + AZD7762; first compound 0.253 µM)	relative viability (DM3189 + AZD7762; first compound 0.8 µM)	relative viability (DM3189 + AZD7762; first compound 2.53 µM)	relative viability (DM3189 + Linsitinib; first compound 0.08 µM)	relative viability (DM3189 + Linsitinib; first compound 0.253 µM)	relative viability (DM3189 + Linsitinib; first compound 0.8 µM)	relative viability (DM3189 + Linsitinib; first compound 2.53 µM)	relative viability (DM3189 + Palbociclib; first compound 0.08 µM)	relative viability (DM3189 + Palbociclib; first compound 0.253 µM)	relative viability (DM3189 + Palbociclib; first compound 0.8 µM)	relative viability (DM3189 + Palbociclib; first compound 2.53 µM)	relative viability (DM3189 + Olaparib; first compound 0.08 µM)	relative viability (DM3189 + Olaparib; first compound 0.253 µM)	relative viability (DM3189 + Olaparib; first compound 0.8 µM)	relative viability (DM3189 + Olaparib; first compound 2.53 µM)	relative viability (DM3189 + Luminespib; first compound 0.08 µM)	relative viability (DM3189 + Luminespib; first compound 0.253 µM)	relative viability (DM3189 + Luminespib; first compound 0.8 µM)	relative viability (DM3189 + Luminespib; first compound 2.53 µM)
NCI-H520					0.995	0.863	0.706	0.554	0.206	0.202	0.206	0.173	0.348	0.339	0.293	0.233	0.238	0.228	0.214	0.214
NCI-H596	1.15	1.07	1.08	0.986	1.15	1.13	1.05	1.14					0.588	0.646	0.702	0.747	1.27	1.07	1.09	0.851
NCI-H661					0.606	0.675	0.734	0.747	0.411	0.394	0.396	0.381	0.845	0.75	0.708	0.71	1.07	0.922	0.959	0.78
NCI-H1563					1.2	1.22	1.13	1.25									0.568	0.487	0.481	0.539
NCI-H1650									0.407	0.292	0.349	0.309	0.801	0.712	0.738	0.838	0.183	0.183	0.188	0.197
NCI-H1703	0.122	0.191	0.119	0.135	0.597	0.635	0.575	0.693					0.397	0.466	0.429	0.446				
NCI-H2009					1.24	1.21	1.11	1.29	0.264	0.195	0.184	0.217	0.894	0.645	0.638	0.689	1.06	1.01	0.932	1.06
NCI-H2023					0.683	0.694	0.496	0.667	0.38	0.396	0.4	0.336	0.486	0.432	0.515	0.333	0.811	0.863	1.09	0.663
NCI-H2170	0.933	0.884	0.875	0.652					0.484	0.363	0.368	0.347	0.607	0.69	0.534	0.469	0.939	0.836	0.762	0.764
NCI-H2228					0.68	0.763	0.572	0.66	1.09	0.75	0.472	0.307	0.88	0.669	0.492	0.51	0.112	0.132	0.144	0.167
NCI-H2342	0.44	0.533	0.54	0.478					0.509	0.489	0.532	0.512	0.417	0.473	0.477	0.468	0.916	0.66	0.845	0.702
SK-LU-1					0.888	0.688	0.667	0.524	0.339	0.268	0.329	0.31	0.449	0.398	0.35	0.372	0.181	0.194	0.176	0.196
SK-MES-1					1.11	0.981	0.97	0.944	0.236	0.26	0.343	0.305	0.679	0.546	0.594	0.348	0.848	0.82	0.611	0.412
SW 900	0.574		0.515	0.645					0.464		0.45	0.479	0.801		0.886	0.897	0.174	0.166	0.156	0.196
SW 1573					0.887	0.771	0.626	0.738	0.454	0.342	0.339	0.255	0.543	0.449	0.441	0.106	0.261	0.232	0.192	0.33
UMC-11					1.09	0.986	1.03	0.959	0.371	0.333	0.313	0.323	0.395	0.37	0.35	0.458	1.01	0.986	0.882	0.685

Source: the supplement of paper PMC10307832
